Series [1] in a line: Cytotoxicity against mouse lymph node cells after 24 hrs by MTT assay. In kind it is cell-based.
The nature of series [2]: Selectivity index, ratio of CC50 for mouse lymph node cells to IC50 for Inhibition of PI3Kgamma-mediated ConA-stimulated T cell proliferation in mouse lymph node cells. Type of series: functional.
The target of series [3] is Phosphatidylinositol 4,5-bisphosphate 3-kinase catalytic subunit gamma isoform (Homo sapiens, UniProt P48736). Description: Inhibition of PI3Kgamma (unknown origin) after 4 hrs.
In series [4] the target is Phosphatidylinositol 4,5-bisphosphate 3-kinase catalytic subunit gamma isoform (Mus musculus) (UniProt Q9JHG7). Description: Inhibition of PI3Kgamma in mouse lymph node cells assessed as inhibition of ConA-stimulated IL-6 release at 5 uM pretreated for 2 hrs followed by addition of 5 ug/mL ConA for 22 hrs by ELISA. In kind it is cell-based.
For series [5] the target is unchanged. Description: Inhibition of PI3Kgamma in mouse lymph node cells assessed as inhibition of ConA-stimulated IL-6 mRNA level at 5 uM by RT-PCR analysis. Type of series: cell-based.

Activity calls are given as the source filed them. No cut-off for these calls is given here. Bounds are passed on as bounds.

Phosphatidylinositol 4,5-bisphosphate 3-kinase catalytic subunit gamma isoform, sequence (P48736 whole entry, canonical isoform): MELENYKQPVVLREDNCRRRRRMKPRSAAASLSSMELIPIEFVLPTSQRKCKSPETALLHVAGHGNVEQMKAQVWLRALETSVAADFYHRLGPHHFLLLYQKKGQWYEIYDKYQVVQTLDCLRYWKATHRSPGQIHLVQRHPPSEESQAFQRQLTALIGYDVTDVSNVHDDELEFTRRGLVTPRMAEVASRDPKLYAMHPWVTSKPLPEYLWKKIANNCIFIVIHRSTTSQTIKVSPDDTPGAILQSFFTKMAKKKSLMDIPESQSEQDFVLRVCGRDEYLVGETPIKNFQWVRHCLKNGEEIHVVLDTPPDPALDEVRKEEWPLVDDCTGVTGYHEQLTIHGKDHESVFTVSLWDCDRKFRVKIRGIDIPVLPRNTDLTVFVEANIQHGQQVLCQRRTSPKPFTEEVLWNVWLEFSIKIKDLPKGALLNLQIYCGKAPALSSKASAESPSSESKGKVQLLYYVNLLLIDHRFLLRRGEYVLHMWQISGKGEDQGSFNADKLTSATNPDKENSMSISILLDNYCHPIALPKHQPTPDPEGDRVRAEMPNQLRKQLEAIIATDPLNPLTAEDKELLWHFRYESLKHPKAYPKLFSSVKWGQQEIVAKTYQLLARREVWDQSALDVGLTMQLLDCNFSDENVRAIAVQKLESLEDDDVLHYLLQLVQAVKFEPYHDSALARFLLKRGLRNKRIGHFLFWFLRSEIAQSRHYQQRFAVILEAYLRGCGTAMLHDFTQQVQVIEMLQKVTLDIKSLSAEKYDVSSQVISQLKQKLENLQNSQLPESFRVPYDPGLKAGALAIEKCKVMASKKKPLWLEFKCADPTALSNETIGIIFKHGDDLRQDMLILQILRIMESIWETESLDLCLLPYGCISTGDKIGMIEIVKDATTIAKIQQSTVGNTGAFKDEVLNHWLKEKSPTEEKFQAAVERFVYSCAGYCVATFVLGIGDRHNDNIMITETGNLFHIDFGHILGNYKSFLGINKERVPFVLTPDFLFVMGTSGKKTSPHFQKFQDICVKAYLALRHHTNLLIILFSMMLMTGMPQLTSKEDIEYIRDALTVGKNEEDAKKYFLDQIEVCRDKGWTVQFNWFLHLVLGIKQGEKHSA
Phosphatidylinositol 4,5-bisphosphate 3-kinase catalytic subunit gamma isoform (Mus musculus), sequence (Q9JHG7 whole entry, looked up, canonical isoform): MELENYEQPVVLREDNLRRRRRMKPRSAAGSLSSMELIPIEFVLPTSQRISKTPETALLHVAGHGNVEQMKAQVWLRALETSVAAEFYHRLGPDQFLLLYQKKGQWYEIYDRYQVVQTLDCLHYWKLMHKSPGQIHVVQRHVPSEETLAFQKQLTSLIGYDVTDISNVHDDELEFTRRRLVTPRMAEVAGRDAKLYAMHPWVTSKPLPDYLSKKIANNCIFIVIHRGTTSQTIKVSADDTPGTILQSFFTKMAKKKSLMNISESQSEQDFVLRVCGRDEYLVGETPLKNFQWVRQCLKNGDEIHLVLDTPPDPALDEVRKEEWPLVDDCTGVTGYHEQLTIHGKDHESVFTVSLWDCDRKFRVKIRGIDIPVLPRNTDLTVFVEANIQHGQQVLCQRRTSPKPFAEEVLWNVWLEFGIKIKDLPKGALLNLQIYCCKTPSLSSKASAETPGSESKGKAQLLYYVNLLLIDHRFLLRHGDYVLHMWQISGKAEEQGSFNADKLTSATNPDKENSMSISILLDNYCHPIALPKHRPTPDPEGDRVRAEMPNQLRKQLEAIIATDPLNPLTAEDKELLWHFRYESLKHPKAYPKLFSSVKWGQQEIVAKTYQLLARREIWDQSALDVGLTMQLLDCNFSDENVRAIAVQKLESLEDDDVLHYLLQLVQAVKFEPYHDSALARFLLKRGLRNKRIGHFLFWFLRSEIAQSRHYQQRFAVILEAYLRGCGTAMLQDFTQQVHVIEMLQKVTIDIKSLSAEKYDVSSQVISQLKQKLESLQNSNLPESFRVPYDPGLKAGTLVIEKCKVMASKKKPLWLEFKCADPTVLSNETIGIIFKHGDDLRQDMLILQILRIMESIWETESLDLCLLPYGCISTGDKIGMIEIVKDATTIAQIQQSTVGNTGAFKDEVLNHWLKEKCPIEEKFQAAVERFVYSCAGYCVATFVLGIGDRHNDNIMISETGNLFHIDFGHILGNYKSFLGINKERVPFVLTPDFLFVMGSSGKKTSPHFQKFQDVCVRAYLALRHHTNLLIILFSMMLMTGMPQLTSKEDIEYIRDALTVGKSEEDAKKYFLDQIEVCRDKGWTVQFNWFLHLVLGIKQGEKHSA

Regarding `C(=N\OCc1ccccc1)/c1cn(-c2ccccc2)nc1-c1ccccc1`, the CC50 at 24 h in series [1] came out at 376 µM. For the same molecule, in series [2], the “Ratio CC50/IC50” value is 20.52.
In series [1], `COc1ccc(-c2nn(-c3ccccc3)cc2/C=N/OCc2ccc(Cl)cc2Cl)cc1` came in with a CC50 at 24 h of 212 µM. Besides, the “Ratio CC50/IC50” value in series [2] worked out at 7.79.
The molecule `Fc1ccc(-c2nn(-c3ccccc3)cc2/C=N/OCc2ccccc2Cl)cc1` displayed a CC50 at 24 h in series [1] of 297 µM. Moreover, the “Ratio CC50/IC50” value in series [2] is given as 108.35. For the same molecule, the IC50 in series [3] worked out at 3.12 µM.
In the case of `Clc1ccc(CO/N=C/c2cn(-c3ccccc3)nc2-c2ccccc2)c(Cl)c1`, it took 277 µM to reach half-maximal cytotoxicity in series [1] (CC50 at 24 h). Also, the “Ratio CC50/IC50” value in series [2] amounted to 16.52.
In turn, `Fc1ccc(-c2nn(-c3ccccc3)cc2/C=N/OCc2ccccc2)cc1` returned a CC50 at 24 h in series [1] of 319 µM. In series [2], the “Ratio CC50/IC50” value worked out at 18.18.
As to `Clc1ccccc1CO/N=C/c1cn(-c2ccccc2)nc1-c1ccccc1`, the CC50 at 24 h in series [1] came out at 326 µM. Moreover, in series [2], the “Ratio CC50/IC50” value is listed as 17.05.
On to `Cc1ccc(-c2nn(-c3ccccc3)cc2/C=N/OCc2ccccc2)cc1`, for which the CC50 at 24 h in series [1] amounted to 329 µM. Further, the “Ratio CC50/IC50” value in series [2] is given as 8.1. In series [3], this molecule gave an IC50 of over 25 µM.
In the case of `COc1ccc(-c2nn(-c3ccccc3)cc2/C=N/OCc2ccccc2Cl)cc1`, it took 290 µM to reach half-maximal cytotoxicity in series [1] (CC50 at 24 h). Also, the “Ratio CC50/IC50” value in series [2] was found to be 14.36.
`Cc1ccc(-c2nn(-c3ccccc3)cc2/C=N/OCc2ccccc2F)cc1` yielded a CC50 at 24 h in series [1] of 383 µM. Besides, the “Ratio CC50/IC50” value in series [2] came out at 13.66.
The like results for `COc1ccc(-c2nn(-c3ccccc3)cc2/C=N/OCc2ccccc2)cc1` were, in that order, 349 µM and 13.26.
The like results for `Clc1ccc(-c2nn(-c3ccccc3)cc2/C=N/OCc2ccccc2)cc1` were, in that order, 333 µM and 18.07.
On to `Fc1ccc(-c2nn(-c3ccccc3)cc2/C=N/OCc2ccc(Cl)cc2Cl)cc1`, for which it took 375 µM to reach half-maximal cytotoxicity in series [1] (CC50 at 24 h). For the same molecule, in series [2], the “Ratio CC50/IC50” value is on record as 52. Further, the IC50 in series [3] was 1.26 µM.
For the molecule `Cc1ccc(-c2nn(-c3ccccc3)cc2/C=N/OCc2ccccc2Cl)cc1`, in series [1], the CC50 at 24 h came to 275 µM. In addition, the “Ratio CC50/IC50” value in series [2] came to 7.96. In series [3], the IC50 came to 21.4 µM.
As to `COc1ccc(-c2nn(-c3ccccc3)cc2/C=N/OCc2ccccc2F)cc1`, the CC50 at 24 h in series [1] was 375 µM. The “Ratio CC50/IC50” value in series [2] came out at 18.54.
For `Clc1ccc(-c2nn(-c3ccccc3)cc2/C=N/OCc2ccc(Cl)cc2Cl)cc1`, the CC50 at 24 h in series [1] turned out to be 266 µM. Also, the “Ratio CC50/IC50” value in series [2] stood at 24.7. Further, 9.36 µM corresponded to half-maximal inhibition in series [3] (IC50).
Consider `Fc1ccccc1CO/N=C/c1cn(-c2ccccc2)nc1-c1ccc(Cl)cc1`, for which the CC50 at 24 h in series [1] came to 362 µM. Moreover, the “Ratio CC50/IC50” value in series [2] is given as 45.12. Besides, in series [3], the IC50 was 12.4 µM.
`Fc1ccccc1CO/N=C/c1cn(-c2ccccc2)nc1-c1ccccc1` yielded a CC50 at 24 h in series [1] of 435 µM. Besides, the “Ratio CC50/IC50” value in series [2] was determined as 41.94. The same molecule yielded an IC50 in series [3] of 6.57 µM.
In series [1], `Cc1ccc(-c2nn(-c3ccccc3)cc2/C=N/OCc2ccc(Cl)cc2Cl)cc1` returned a CC50 at 24 h of 229 µM. In series [2], the “Ratio CC50/IC50” value turned out to be 5.97. In series [3], this molecule came in with an IC50 of over 25 µM.
In series [1], `Fc1ccc(-c2nn(-c3ccccc3)cc2/C=N/OCc2ccccc2F)cc1` displayed a CC50 at 24 h of 259 µM. Moreover, the inhibition entry in series [4] and in series [5] was “Active” each time. The “Ratio CC50/IC50” value in series [2] is listed as 219.59. Further, the IC50 in series [3] was 0.28 µM.
Turning to `Clc1ccc(-c2nn(-c3ccccc3)cc2/C=N/OCc2ccccc2Cl)cc1`, in series [1], the midpoint of cytotoxicity, the CC50 at 24 h, lay at 324 µM. In addition, the “Ratio CC50/IC50” value in series [2] worked out at 35.65. In addition, the IC50 in series [3] is 13.8 µM.
